Measurements taken from ChEMBL document CHEMBL5375959 (J Med Chem, 2023).
Blank lines part the entries; values can stand above or below the molecule they belong to. The source made the active and inactive calls. No cut-off for these calls is given here.

Columns and labels:
[1] = target: Sarcoplasmic/endoplasmic reticulum calcium ATPase 2 (Mus musculus) (UniProt O55143); experiment: Activation of SERCA2a in C57BL/6N mouse sarcoplasmic reticulum assessed as increase in […] measured for 10 mins in presence of ATP by NADH fluorescence-coupled ATPase assay; type: subcellular; settings: filed as activator
Chain of Sarcoplasmic/endoplasmic reticulum calcium ATPase 2 (Mus musculus) (O55143 whole entry): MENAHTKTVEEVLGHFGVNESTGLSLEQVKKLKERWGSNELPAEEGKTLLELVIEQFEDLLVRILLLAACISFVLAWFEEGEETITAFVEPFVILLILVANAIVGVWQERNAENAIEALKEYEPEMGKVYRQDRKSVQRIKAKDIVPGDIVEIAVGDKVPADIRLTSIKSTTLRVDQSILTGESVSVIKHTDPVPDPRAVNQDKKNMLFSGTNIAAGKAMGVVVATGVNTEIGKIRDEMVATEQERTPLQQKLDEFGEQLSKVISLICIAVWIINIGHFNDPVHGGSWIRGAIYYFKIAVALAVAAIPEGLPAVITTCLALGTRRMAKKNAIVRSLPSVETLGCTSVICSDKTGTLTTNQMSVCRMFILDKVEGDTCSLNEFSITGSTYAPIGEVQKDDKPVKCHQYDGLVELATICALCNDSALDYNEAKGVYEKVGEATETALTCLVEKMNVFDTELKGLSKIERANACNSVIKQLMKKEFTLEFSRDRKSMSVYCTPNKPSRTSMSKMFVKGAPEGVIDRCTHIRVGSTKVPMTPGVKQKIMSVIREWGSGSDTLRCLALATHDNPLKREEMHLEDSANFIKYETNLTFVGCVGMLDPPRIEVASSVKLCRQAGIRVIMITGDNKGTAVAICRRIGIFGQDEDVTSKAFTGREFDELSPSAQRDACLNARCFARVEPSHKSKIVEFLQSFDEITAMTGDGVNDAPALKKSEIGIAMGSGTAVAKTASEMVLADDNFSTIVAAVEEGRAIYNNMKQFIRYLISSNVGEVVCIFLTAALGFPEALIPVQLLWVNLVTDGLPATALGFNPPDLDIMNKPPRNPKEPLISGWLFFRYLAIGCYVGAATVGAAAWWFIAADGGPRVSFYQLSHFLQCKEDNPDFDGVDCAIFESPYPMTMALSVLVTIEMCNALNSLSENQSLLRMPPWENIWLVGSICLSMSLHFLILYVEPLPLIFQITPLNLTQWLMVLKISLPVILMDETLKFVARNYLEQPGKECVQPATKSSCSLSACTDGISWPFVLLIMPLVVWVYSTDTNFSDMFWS

[2] = target: Sarcoplasmic/endoplasmic reticulum calcium ATPase 2 (Homo sapiens) (UniProt P16615); experiment: Activation of SERCA2a in human HEK293T cells endoplasmic reticulum assessed as increase in […] measured for 10 mins in presence of ATP by NADH fluorescence-coupled ATPase assay; type: subcellular
Chain of Sarcoplasmic/endoplasmic reticulum calcium ATPase 2 (Homo sapiens) (P16615 whole entry): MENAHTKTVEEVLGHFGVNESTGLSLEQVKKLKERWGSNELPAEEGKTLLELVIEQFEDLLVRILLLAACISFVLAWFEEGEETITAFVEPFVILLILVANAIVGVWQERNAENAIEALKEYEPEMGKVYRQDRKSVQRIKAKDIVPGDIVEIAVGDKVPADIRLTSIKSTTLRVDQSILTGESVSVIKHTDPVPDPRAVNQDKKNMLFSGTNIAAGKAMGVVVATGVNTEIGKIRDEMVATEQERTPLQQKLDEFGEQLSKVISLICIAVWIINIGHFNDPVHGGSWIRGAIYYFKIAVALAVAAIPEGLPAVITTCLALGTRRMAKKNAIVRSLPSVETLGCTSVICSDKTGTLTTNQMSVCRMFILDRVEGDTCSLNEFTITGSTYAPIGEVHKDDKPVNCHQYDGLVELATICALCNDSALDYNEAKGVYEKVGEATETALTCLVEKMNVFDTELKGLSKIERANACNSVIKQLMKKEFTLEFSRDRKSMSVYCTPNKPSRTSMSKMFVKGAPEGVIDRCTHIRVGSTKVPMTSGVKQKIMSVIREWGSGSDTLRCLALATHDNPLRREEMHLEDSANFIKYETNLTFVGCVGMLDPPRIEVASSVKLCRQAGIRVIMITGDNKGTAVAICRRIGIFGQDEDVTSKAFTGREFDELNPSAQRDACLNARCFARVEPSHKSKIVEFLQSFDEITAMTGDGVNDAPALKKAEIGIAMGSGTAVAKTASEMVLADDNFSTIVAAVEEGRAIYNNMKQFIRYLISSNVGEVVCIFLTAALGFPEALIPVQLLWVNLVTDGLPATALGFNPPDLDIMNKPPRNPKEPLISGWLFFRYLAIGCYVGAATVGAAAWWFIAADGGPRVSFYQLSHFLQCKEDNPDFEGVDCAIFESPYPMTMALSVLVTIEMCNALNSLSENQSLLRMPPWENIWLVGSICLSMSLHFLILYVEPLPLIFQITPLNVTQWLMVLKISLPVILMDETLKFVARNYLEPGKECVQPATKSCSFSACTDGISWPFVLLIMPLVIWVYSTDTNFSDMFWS

[3] = target: Sarcoplasmic/endoplasmic reticulum calcium ATPase 2 (Mus musculus) (UniProt O55143); experiment: (§1) Activation of SERCA2a in mouse HL-1 cells assessed as increase in caffeine-induced calcium release incubated for 2 hrs by FLIPR Calcium 6 dye based caffeine assay; type: cell-based
[4] = target: Sarcoplasmic/endoplasmic reticulum calcium ATPase 2 (Mus musculus, UniProt O55143); experiment: as §1; type: cell-based
Chain of Sarcoplasmic/endoplasmic reticulum calcium ATPase 2 (O55143 whole entry): as the sequence (O55143 whole entry) above

[5] = Permeability of the compound measured after 24 hrs by PAMPA; type: ADME; settings: read-out: permeability
[6] = target: T1, Ryanodine receptor 2 (Homo sapiens, UniProt Q92736); experiment: Modulator activity at wild type RyR2 (unknown origin) expressed in HEK293T co-expressed with R-CEPIA1er assessed as decrease in RyR2-mediated calcium leak in presence of calcium chloride by time-lapse fluorescence analysis; type: cell-based
[7] = target: T1, Ryanodine receptor 2; experiment: Modulator activity at wild type RyR2 (unknown origin) expressed in HEK293T co-expressed with R-CEPIA1er assessed as decrease in RyR2-mediated calcium leak at 25 uM in presence of calcium chloride by time-lapse fluorescence analysis; type: cell-based; settings: filed as modulator
[8] = target: Sarcoplasmic/endoplasmic reticulum calcium ATPase 2 (Mus musculus) (UniProt O55143); experiment: Activation of SERCA2a in mouse HL-1 cells assessed as increase in caffeine-induced calcium release at 10 uM incubated for 2 hrs by FLIPR Calcium 6 dye based caffeine assay; type: cell-based
[9] = target: Sarcoplasmic/endoplasmic reticulum calcium ATPase 2 (Mus musculus) (UniProt O55143); experiment: Activation of SERCA2a in mouse HL-1 cells assessed as increase in caffeine-induced calcium release at 0.1 to 50 uM incubated for 2 hrs by FLIPR Calcium 6 dye based caffeine assay; type: cell-based; settings: dose 0.1-50 µM
[10] = target: T1, Ryanodine receptor 2; experiment: Modulator activity at wild type RyR2 (unknown origin) expressed in HEK293T co-expressed with R-CEPIA1er assessed as decrease in RyR2-mediated calcium leak at 1 mM in presence of calcium chloride by time-lapse fluorescence analysis; type: cell-based; settings: filed as modulator
[11] = target: Sarcoplasmic/endoplasmic reticulum calcium ATPase 2 (Mus musculus) (UniProt O55143); experiment: Activation of SERCA2a in mouse HL-1 cells assessed as increase in caffeine-induced calcium release at 10 uM incubated for 2 hrs by FLIPR Calcium 6 dye based caffeine assay relative to control; type: cell-based; settings: filed as activator
[12] = target: Sarcoplasmic/endoplasmic reticulum calcium ATPase 2 (Mus musculus) (UniProt O55143); experiment: Activation of SERCA2a in mouse HL-1 cells assessed as increase in caffeine-induced calcium release at 25 uM incubated for 2 hrs by FLIPR Calcium 6 dye based caffeine assay; type: cell-based
[13] = target: Sarcoplasmic/endoplasmic reticulum calcium ATPase 2 (Mus musculus) (UniProt O55143); experiment: Activation of SERCA2a in mouse HL-1 cells assessed as increase in caffeine-induced calcium release at 50 uM incubated for 2 hrs by FLIPR Calcium 6 dye based caffeine assay; type: cell-based
[14] = target: Sarcoplasmic/endoplasmic reticulum calcium ATPase 2 (Mus musculus) (UniProt O55143); experiment: Activation of SERCA2a in mouse HL-1 cells assessed as increase in caffeine-induced calcium release at 3 uM incubated for 2 hrs by FLIPR Calcium 6 dye based caffeine assay relative to control; type: cell-based; settings: filed as activator

Structure (SMILES): COc1ccc2c(c1)CN(Cc1ccc(C(=O)O)cc1)CCS2 [SURLORIAN]
Activity [1]: Active
Activity ([2]; filed as activator): Active
Activity ([3]; filed as activator): Dose-Dependent Effect
EC50 [4]: 34.3 µM
Papp at 24 h [5]: 6.8 ×10⁻⁶ cm/s
Activity ([6]; filed as modulator): Active

Structure (SMILES): O=C1CN(/N=C/c2ccc(-c3ccc([N+](=O)[O-])cc3)o2)C(=O)N1
Activity [7]: Active

Structure (SMILES): COc1ccc(SCCCNCCCCC2(O)CC2)cc1
Activity [1]: Active
Activity ([2]; filed as activator): Active
Papp at 24 h [5]: 6.9 ×10⁻⁶ cm/s

Structure (SMILES): COc1ccc2c(c1)CN(C(=O)C(=O)O)CCS2 [ALADORIAN]
Activity [8]: inactive
Activity [9]: inactive
Activity [3]: inactive
Activity [7]: Active
Papp at 24 h [5]: 1 ×10⁻⁶ cm/s
Activity ([6]; filed as modulator): Active

Structure (SMILES): COc1ccc(SCCCN(CCCCC2(O)CC2)CCCCC2(O)CC2)cc1
Activity [1]: Active
Activity ([2]; filed as activator): Active
Papp at 24 h [5]: 3.6 ×10⁻⁶ cm/s

Structure (SMILES): COc1ccc(OCCCNCCCCC2(O)CC2)cc1
Activity [1]: Active
Activity [2]: inactive
Papp at 24 h [5]: 4 ×10⁻⁶ cm/s

Structure (SMILES): COc1ccc(OCCCN(CCCCC2(O)CC2)CCCCC2(O)CC2)cc1
Activity [1]: Active
Activity ([2]; filed as activator): Active
EC50 [4]: 1.5 µM
Activity [11]: 150%
Activity [12]: inactive
Papp at 24 h [5]: 4 ×10⁻⁶ cm/s
EC50 [6]: > 23 µM
Activity [13]: inactive
Activity [14]: 150%

Continued, values first:

Activity [1]: Active
Activity [2]: inactive
Papp at 24 h [5]: 0.8 ×10⁻⁶ cm/s
EC50 [6]: 8.17 µM
Structure (SMILES): COc1ccc2c(c1)CN(CCCCNCCCCC1(O)CC1)CCS2

Activity [8]: inactive
Activity [9]: inactive
Activity [3]: inactive
Papp at 24 h [5]: 1.2 ×10⁻⁶ cm/s
Activity ([6]; filed as modulator): Active
Activity [10]: Active
Structure (SMILES): COc1ccc2c(c1)CN(C)CCS2

Activity [1]: Active
Activity ([2]; filed as activator): Active
EC50 [4]: > 1000 µM
Papp at 24 h [5]: 3.6 ×10⁻⁶ cm/s
Activity [6]: inactive
Structure (SMILES): COc1ccc2c(c1)CN(CCCCC1(O)CC1)CCS2

Activity [7]: Active
Papp at 24 h [5]: 0.6 ×10⁻⁶ cm/s
EC50 [6]: 2.7 µM
Structure (SMILES): COc1ccc2c(c1)CN(CCCCN(CCCCC1(O)CC1)CCCCC1(O)CC1)CCS2
